Results published in patent US6689806B1, “Indolinone compounds as kinase inhibitors” (Sugen, Inc., priority 1999, dated 2004).
Where two headings read alike, the source gives them in different places.

Assays:
EGFR = EGFR (Homo sapiens, UniProt P00533); assay: Biochemical EGFR assay (ELISA); parameters: A431 cell lysate; endogenous in cells; host or cells: A431
Protocol: This assay measures the in vitro kinase activity of EGFR using ELISA.
1. Coat Coming 96 well ELISA plates with 0.5 μg SUMOl in 100 μL PBS per well, store overnight at 4° C.
5. Dilute lysate in PBS (7 μg lysate/100 μL PBS).
(§1) 6. Add 100 μL of diluted lysate to each well. Shake at room temperature for 60 min.
8. Add 120 μL TBS to ELISA plate containing captured EGFR.
9. Dilute test compound 1:10 in TBS in 96-well polypropylene plates (ie. 10 μL compound+90 μL TBS).
10. Add 13.5 μL diluted test compound to ELISA plate.
13. After 5 minutes, stop reaction by adding 16.5 μL of 200 mM EDTA (pH 8.0) to each well, shaking continuously. After the EDTA has been added, shake for 1 mm.
(§2) 15. Add 100 μL anti-phosphotyrosine (1:3000 dilution in TBST) per well. Incubate 30-45 min. at room temperature, with shaking.
(§3) 17. Add 100 μL Biosource Goat anti-rabbit IgG peroxidase conjugate (1:2000 dilution in TBST) to each well. Incubate 30 min. at room temperature, with shaking.
(§4) 19. Add 100 μL of ABTS/H2O2 solution to each well.
22. Read assay on Dynatech MR7000 ELISA reader. Test Filter: 410 nM Reference Filter: 630 Nm.

Her2 = target: T1, Her2 (Homo sapiens, UniProt P04626); assay: HER-2 ELISA: EGF receptor-HER2 chimeric receptor assay in whole cells (HER2 kinase); type: cell-based; details: NIH3T3 cells with EGFR/HER2 chimeric receptor, phosphotyrosine ELISA
T1 construct: fused on or other part: P00533 (Epidermal growth factor receptor)
Protocol: Assay 1: EGF Receptor-HER2 Chimeric Receptor Assay In Whole Cells.
HER2 kinase activity in whole EGFR-NIH3T3 cells was measured as described below:
1. An NIH3T3 cell line overexpressing a chimeric receptor containing the EGFR extracellular domain and intracellular HER2 kinase domain can be used for this assay.
3. Resuspend cells in seeding medium (DMEM, 0.5% bovine serum), and count the cells using trypan blue. Viability above 90% is acceptable. Seed cells in DMEM medium (0.5% bovine serum) at a density of 10,000 cells per well, 100 μL per well, in a 96 well microtiter plate. Incubate seeded cells in 5% CO2 at 37° C. for about 40 hours.
1. Check seeded cells for contamination using an inverted microscope. Dilute drug stock (10 mg/mL in DMSO) 1:10 in DMEM medium, then transfer 5 μL to a TBST well for a final drug dilution of 1:200 and a final DMSO concentration of 1%. Control wells receive DMSO alone. Incubate in 5% CO2 at 37° C. for two hours.
2. Prepare EGF ligand: dilute stock EGF in DMEM so that upon transfer of 10 μL dilute EGF (1:12 dilution), 100 nM final concentration is attained.
4. After 120 minutes incubation with drug, add prepared […] ligand to cells, 10 μL per well, to a final concentration of 100 nM. Control wells receive DMEM alone. Incubate, shaking, at room temperature, for 5 minutes.
5. Remove drug, EGF, and DMEM. Wash cells twice with PBS. Transfer HNTG* to cells, 100 μL per well. Place on ice for 5 minutes. Meanwhile, remove blocking buffer from other ELISA plate and wash with TBST as described above.
6. With a pipette tip securely fitted to a micropipettor, scrape cells from plate and homogenize cell material by repeatedly aspirating and dispensing the HNTG* lysis buffer. Transfer lysate to a coated, blocked, and washed ELISA plate. Incubate shaking at room temperature for one hour.
7. Remove lysate and wash 4 times with TBST. Transfer freshly diluted anti-Ptyr antibody to ELISA plate at 100 μL per well. Incubate shaking at room temperature for 30 minutes in the presence of the anti-Ptyr antiserum (1:3000 dilution in TBST).
8. Remove the anti-Ptyr antibody and wash 4 times with TBST. Transfer the freshly diluted TAGO anti-rabbit IgG antibody to the ELISA plate at 100 μL per well. Incubate shaking at room temperature for 30 minutes (anti-rabbit IgG antibody: 1:3000 dilution in TBST).
9. Remove TAGO detection antibody and wash 4 times with TBST. Transfer freshly prepared ABTS/H2O2 solution to ELISA plate, 100 μL per well. Incubate shaking at room temperature for 20 minutes. (ABTS/H2O2 solution: 1.0 μL 30% H2O2 in 10 mL ABTS stock).
10. Stop reaction by adding 50 μL 5N H2SO4 (optional), and determine O.D. at 410 nm.
11. The maximal phosphotyrosine signal is determined by subtracting the value of the negative controls from the positive controls. The percent inhibition of phosphotyrosine content for extract-containing wells is then calculated, after subtraction of the negative controls.

PDGFR = PDGFR (Homo sapiens, UniProt P09619); assay: Biochemical PDGFR assay (ELISA); parameters: expressed in transfected cells; host or cells: NIH 3T3
Protocol: This assay measures the in vitro kinase activity of PDGFR using ELISA.
6. PDGFR-β expressing NlH 3T3 cell lysate.
1. Coat Corning 96 well ELISA plates with 0.5 μg 28D4C10 in 100 μL PBS per well, store overnight at 4° C.
5. Dilute lysate in HNTG (10 μg lysate/100 μL HNTG)
as §1
8. Add 80 μL working kinase buffer mix to ELISA plate containing captured PDGFR.
9. Dilute test compound 1:10 in TBS in 96-well polypropylene plates (i.e., 10 μL compound+90 μL TBS).
10. Add 10 μL diluted test compound to ELISA plate.
11. Incubate for 30 minutes while shaking at room temperature.
12. Add 10 μL ATP directly to all wells except negative control well (final well volume should be approximately 100 μL with 20 μM ATP in each well.) Incubate 30 minutes while shaking.
13. After 30 minutes, stop reaction by adding 10 μL of 200 mM EDTA (pH 8.0) to each well.
as §2, §3, §4
22. Read assay on Dynatech MR7000 ELISA reader: test filter: 410 nM, reference filter: 630 nM.

[1] = Table 7, in vitro kinase activity, read-out: EGFr biochem IC50
[2] = Table 5, in vitro kinase activity, read-out: EGFr biochem IC50
[3] = Table 5, in vitro kinase activity, read-out: PDGFr biochem IC50
[4] = Table 4, in vitro kinase activity, read-out: bio EGFr IC50
[5] = Table 4, in vitro kinase activity, read-out: bio PDGFr IC50

PDGFR, sequence (P09619 33-1106): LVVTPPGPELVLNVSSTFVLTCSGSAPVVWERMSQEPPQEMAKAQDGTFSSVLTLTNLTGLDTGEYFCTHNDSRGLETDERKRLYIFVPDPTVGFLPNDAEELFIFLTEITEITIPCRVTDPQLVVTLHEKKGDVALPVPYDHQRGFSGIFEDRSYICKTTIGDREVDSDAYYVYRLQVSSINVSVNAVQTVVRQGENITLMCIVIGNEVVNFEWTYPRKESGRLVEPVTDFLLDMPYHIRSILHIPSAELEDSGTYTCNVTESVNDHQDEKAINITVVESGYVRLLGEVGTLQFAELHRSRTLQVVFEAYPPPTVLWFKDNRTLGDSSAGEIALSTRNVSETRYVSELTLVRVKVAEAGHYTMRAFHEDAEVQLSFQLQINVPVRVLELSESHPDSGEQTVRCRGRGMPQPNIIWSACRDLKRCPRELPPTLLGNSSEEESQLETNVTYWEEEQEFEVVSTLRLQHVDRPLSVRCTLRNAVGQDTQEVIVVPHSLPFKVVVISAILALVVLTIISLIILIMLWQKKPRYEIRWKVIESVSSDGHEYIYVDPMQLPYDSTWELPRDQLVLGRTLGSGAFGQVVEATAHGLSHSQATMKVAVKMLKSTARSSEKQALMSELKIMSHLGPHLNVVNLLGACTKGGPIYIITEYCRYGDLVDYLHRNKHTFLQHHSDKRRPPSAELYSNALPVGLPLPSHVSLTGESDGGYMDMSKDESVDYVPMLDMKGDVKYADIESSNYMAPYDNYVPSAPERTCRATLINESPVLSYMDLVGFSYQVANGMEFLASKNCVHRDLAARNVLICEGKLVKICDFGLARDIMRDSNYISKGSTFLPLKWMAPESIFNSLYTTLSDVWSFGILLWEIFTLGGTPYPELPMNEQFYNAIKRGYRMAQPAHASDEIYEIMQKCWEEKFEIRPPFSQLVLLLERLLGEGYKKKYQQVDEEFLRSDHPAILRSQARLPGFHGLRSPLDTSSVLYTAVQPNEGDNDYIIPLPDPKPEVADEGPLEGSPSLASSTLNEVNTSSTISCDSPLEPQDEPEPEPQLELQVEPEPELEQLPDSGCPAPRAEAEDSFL
T1 sequence (P04626 676-1255 limits assumed): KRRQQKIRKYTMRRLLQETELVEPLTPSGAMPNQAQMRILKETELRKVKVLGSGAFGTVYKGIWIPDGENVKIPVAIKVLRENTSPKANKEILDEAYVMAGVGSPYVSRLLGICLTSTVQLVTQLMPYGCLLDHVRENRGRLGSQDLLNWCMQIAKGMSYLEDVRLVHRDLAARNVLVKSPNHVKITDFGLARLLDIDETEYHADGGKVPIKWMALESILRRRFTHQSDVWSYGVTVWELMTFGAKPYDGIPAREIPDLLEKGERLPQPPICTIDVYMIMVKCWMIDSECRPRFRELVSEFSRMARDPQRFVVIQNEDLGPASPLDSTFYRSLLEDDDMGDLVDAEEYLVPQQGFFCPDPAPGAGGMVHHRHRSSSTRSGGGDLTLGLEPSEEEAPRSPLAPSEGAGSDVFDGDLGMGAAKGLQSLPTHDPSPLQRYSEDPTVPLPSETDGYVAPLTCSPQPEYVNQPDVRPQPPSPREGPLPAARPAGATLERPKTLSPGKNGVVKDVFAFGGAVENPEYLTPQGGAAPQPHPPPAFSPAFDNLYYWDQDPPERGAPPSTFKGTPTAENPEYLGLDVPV
EGFR, sequence (P00533 25-1210): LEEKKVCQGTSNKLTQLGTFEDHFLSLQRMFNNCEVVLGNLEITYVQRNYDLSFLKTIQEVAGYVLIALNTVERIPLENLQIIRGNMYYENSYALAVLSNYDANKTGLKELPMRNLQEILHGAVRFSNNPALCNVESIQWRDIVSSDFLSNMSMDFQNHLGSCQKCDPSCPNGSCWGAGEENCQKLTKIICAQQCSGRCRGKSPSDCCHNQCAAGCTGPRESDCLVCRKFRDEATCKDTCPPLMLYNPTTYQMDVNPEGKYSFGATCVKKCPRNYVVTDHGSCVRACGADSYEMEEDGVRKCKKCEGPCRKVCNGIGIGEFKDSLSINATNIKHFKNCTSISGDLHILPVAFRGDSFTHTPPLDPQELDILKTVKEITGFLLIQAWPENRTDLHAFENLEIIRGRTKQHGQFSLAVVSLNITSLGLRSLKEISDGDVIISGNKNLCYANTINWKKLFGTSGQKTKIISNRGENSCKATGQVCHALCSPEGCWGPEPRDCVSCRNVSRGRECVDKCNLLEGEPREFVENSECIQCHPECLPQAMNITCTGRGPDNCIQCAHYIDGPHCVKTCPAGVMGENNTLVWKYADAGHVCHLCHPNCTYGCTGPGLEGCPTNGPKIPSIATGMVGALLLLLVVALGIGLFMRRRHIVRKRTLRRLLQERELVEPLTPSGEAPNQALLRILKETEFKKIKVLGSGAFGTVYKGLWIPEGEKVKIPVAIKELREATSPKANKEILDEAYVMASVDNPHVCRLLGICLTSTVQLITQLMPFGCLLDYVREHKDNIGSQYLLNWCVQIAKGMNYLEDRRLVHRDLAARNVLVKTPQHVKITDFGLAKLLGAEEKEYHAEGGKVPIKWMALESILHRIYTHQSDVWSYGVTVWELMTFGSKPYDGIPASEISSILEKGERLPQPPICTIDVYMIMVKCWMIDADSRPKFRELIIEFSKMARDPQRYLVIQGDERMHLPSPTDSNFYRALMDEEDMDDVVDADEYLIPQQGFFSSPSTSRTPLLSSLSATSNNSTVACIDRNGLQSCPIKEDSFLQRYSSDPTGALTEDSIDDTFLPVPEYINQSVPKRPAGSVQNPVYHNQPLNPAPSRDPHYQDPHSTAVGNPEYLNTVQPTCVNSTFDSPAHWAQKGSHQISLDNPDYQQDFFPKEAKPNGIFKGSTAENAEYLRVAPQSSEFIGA

SMILES	IC50 (EGFR; [2])	IC50 (PDGFR; [3])	IC50 (Her2; Table 5)	IC50 (EGFR; [4])	IC50 (PDGFR; [5])	IC50 (Her2; Table 4)	further results
O=C1Cc2c(CCOc3cncc(Cl)c3)cccc2N1 [IN-021, 4-[2-(5-Chloro-pyridin-3-yloxy)-ethyl]1,3-dihydro-indol-2-one]							IC50 (EGFR; [1]): > 100 µM; IC50 (Her2; Table 7): > 100 µM
COc1ccc(-c2cc(CC3C(=O)Nc4ccccc43)c(O)cc2OC)cc1 (stereo not drawn) [AAI-4, 3-(4-Hydroxy-6,4′-dimethoxybiphenyl-3-ylmethyl)-1,3-dihydroindol-2-one]	> 100 µM	> 100 µM	> 100 µM				
COc1ccc2c(c1)NC(=O)C2Cc1ccc(OC)c(-c2ccsc2)c1 (stereo not drawn) [AAI-1, 6-Methoxy-3-(4-methoxy-3-thiophen-3-ylbenzyl)-1,3-dihydroindol-2-one]	> 100 µM	> 100 µM	> 100 µM				
CCOCCc1cccc2c1CC(=O)N2 [IN-019, 4-(2-Ethoxy-ethyl)-1,3-dihydro-indol-2-one]							IC50 (EGFR; [1]): > 100 µM; IC50 (Her2; Table 7): > 100 µM
Cc1[nH]c(CC2C(=O)Nc3ccc(Br)cc32)c(C)c1CCCN(C)C (stereo not drawn) [AAI-19, 5-Bromo-3-[4-(3-dimethylaminopropyl)-3,5-dimethyl-1H-pyrrol-2-ylmethyl]-1,3-dihydroindol-2-one]	> 100 µM	0.25 µM	> 100 µM				
CC(C)NC(=O)OCCc1cccc2c1CC(=O)N2 [IN-025, Isopropyl-carbamic acid 2-(2-oxo-2,3-dihydro-1H-indol-4-yl)-ethyl ester]							IC50 (EGFR; [1]): > 100 µM; IC50 (PDGFR; Table 7, in vitro kinase activity, read-out: PDGFr biochem IC50): 70.8 µM; IC50 (Her2; Table 7): 3.9 µM
O=C(Nc1ccc2c(c1)NC(=O)C2Cc1cc(Cl)ccc1O)C1CCCC1 (stereo not drawn) [AAI-3, Cyclopentanecarboxylic Acid [3-(5-Chloro-2-hydroxybenzyl)-2-oxo-2,3-dihydro-1H-indol-6-yl]-amide]	> 100 µM	> 100 µM	> 100 µM				
O=C1Nc2cc(-c3ccccc3)ccc2C1Cc1cc(Br)ccc1O (stereo not drawn) [AAI-26, 3-(5-Bromo-2-hydroxybenzyl)-6-phenyl-1,3-dihydroindol-2-one]	> 100 µM	> 100 µM	67.6 µM				
COCCc1cccc2c1CC(=O)N2 [IN-018, 4-(2-Methoxy-ethyl)-1,3-dihydro-indol-2-one]							IC50 (EGFR; [1]): > 100 µM; IC50 (Her2; Table 7): > 100 µM
O=C(Nc1ccc2c(c1)NC(=O)C2Cc1cc(Cl)cc(Cl)c1O)C1CCCC1 (stereo not drawn) [AAI-2, Cyclopentanecarboxylic Acid [3-(3,5-Dichloro-2-hydroxybenzyl)-2-oxo-2,3-dihydro-1H-indol-6-yl]-amide]	> 100 µM	> 100 µM	50.5 µM				
O=C1Nc2cccc(CCO)c2C1Cc1ccc(Br)cc1 (stereo not drawn) [AAI-14, 3-(4-Bromobenzyl)-4-(2-hydroxyethyl)-1,3-dihydroindol-2-one]	> 100 µM	> 100 µM	> 100 µM				
CC(C)c1cc(CC2C(=O)Nc3ccc(Cl)cc32)cc(C(C)C)c1OCCN1CCOCC1 (stereo not drawn) [AAI-15, 5-Chloro-3-[3,5-diisopropyl-4-(2-morpholin-4-ylethoxy)-benzyl]-1,3-dihydroindol-2-one]	> 100 µM	> 100 µM	> 100 µM				
CC(C)(C)c1cc(CC2C(=O)Nc3ccc(Cl)cc32)cc(Br)c1O (racemic) [AAI-28, 3-(3-Bromo-5-tert-butyl-4-hydroxybenzyl)-5-chloro-1,3-dihydroindol-2-one]	> 100 µM	> 100 µM	48 µM				

Now from value to compound, other results behind:

IC50 (EGFR; [2])	IC50 (PDGFR; [3])	IC50 (Her2; Table 5)	IC50 (EGFR; [4])	IC50 (PDGFR; [5])	IC50 (Her2; Table 4)	SMILES	further results
			> 100 µM	> 100 µM	> 100 µM	COc1ccc(C=C2C(=O)Nc3cc(-c4cccnc4)ccc32)cc1-c1cccs1 [AHI-1, 3-(4-Methoxy-3-thiophen-2-yl-benzylidene)-6-pyridin-3-yl-1,3-dihydroindol-2-one]	
			> 100 µM	> 100 µM	> 100 µM	COc1ccc(C=C2C(=O)Nc3cc(-c4ccsc4)ccc32)cc1-c1cccs1 [AHI-5, 3-(4-Methoxy-3-thiophen-2-yl-benzylidene)-6-thiophen-3-yl-1,3-dihydroindol-2-one]	
			> 100 µM	0.52 µM	71 µM	Cc1[nH]c(C=C2C(=O)Nc3cc(-c4cccs4)ccc32)c(C)c1CCCN(C)C [AHI-8, 3-[4-(3-Dimethylaminopropyl)-3,5-dimethyl-1H-pyrrol-2-ylmethylene]-6-thiophen-2-yl-1,3-dihydroindol-2-one]	
			> 100 µM	76.6 µM	57.3 µM	O=C1Nc2cc(-c3ccsc3)ccc2C1=Cc1ccccc1O [AHI-6, 3-(2-Hydroxybenzylidene)-6-thiophen-3-yl-1,3-dihydroindol-2-one]	
			12.1 µM	0.02 µM	16.8 µM	Cc1[nH]c(C=C2C(=O)Nc3cc(-c4cccnc4)ccc32)c(C)c1CCCN(C)C [AHI-7, 3-[4-(3-Dimethylaminopropyl)-3,5-dimethyl-1H-pyrrol-2-ylmethylene]-6-pyridin-3-yl-1,3-dihydroindol-2-one]	
			> 100 µM	> 100 µM	> 100 µM	O=C1Nc2cc(-c3cccs3)ccc2C1=Cc1ccccc1O [AHI-4, 3-(2-Hydroxybenzylidene)-6-thiophen-2-yl-1,3-dihydroindol-2-one]	
			> 100 µM	49.9 µM	31.5 µM	O=C1Nc2cc(-c3cccnc3)ccc2C1=Cc1ccccc1O [AHI-2, 3-(2-Hydroxybenzylidene)-6-pyridin-3-yl-1,3-dihydroindol-2-one]	
			> 100 µM	> 100 µM	> 100 µM	COc1ccc(C=C2C(=O)Nc3cc(-c4cccs4)ccc32)cc1-c1cccs1 [AHI-3, 3-(4-Methoxy-3-thiophen-2-yl-benzylidene)-6-thiophen-2-yl-1,3-dihydroindol-2-one]	
